Assay results: patent publication US20240383853A1, “OXIMES AND THEIR USE IN TREATMENT OF GBA-RELATED DISEASES” (ZEVRA DENMARK A/S, priority 2021, published 2024)
Where a name gives a salt, the structure may show the parent alone. Marks after values point to notes of the source that are not given here.

Biological target: T1, glucosylceramidase (GCase, GBA) in human fibroblast cell line GM10915 harboring the L444P GBA mutation (Homo sapiens, UniProt P04062, L483P)
T1 construct: Human fibroblast cell line GM10915 harboring the L444P GBA mutation; host or cells: GM10915 human fibroblasts
T1 sequence (P04062 40-536 L483P): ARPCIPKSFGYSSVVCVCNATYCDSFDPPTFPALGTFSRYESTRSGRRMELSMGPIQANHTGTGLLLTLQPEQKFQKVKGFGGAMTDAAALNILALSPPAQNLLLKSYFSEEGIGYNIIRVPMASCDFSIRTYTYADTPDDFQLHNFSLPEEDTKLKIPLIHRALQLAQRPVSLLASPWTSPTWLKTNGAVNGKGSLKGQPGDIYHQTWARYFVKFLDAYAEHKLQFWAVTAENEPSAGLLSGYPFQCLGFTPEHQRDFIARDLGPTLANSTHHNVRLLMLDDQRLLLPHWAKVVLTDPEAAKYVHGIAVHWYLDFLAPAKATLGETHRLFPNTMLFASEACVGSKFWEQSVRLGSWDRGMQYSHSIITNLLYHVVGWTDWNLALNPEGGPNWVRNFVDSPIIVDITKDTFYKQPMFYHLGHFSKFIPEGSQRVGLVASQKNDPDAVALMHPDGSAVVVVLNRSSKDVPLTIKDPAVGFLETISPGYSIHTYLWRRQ
Assay: GCase activity assay (4-MUG substrate, normalised to crystal violet staining) in GM10915 fibroblasts
Type: cell-based
Conditions: five days exposure; for GBA EC1.5: concentration where Percent GCase activity = 150% (1.5-fold induction), 8-point dose range; for GBA Emax / Emax: maximum Percent GCase activity relative to untreated cells in the dose range tested
Protocol: Human fibroblast cell line GM10915 harboring the L444P GBA mutation was obtained from Coriell Biorepositories. All chemicals (Glacial acetic acid, Glycine, 4-Methylumbelliferyl b-D-glucopyranoside (4-MUG), Sodium acetate trihydrate, Sodium hydroxide, Crystal violet, SDS, Ammonium hydroxide) were obtained from Sigma-Aldrich (Denmark). Compounds tested for GCase activity were dissolved in H2O or DMSO.
The GM10915 cell line was cultured under standard cell culture conditions (37° C. and 5% CO2) in complete DMEM medium supplemented with nonessential amino acids (NEAA), 1% Pen-Strep and 12% FCS. Cells were seeded at a density of 10^4 cells/well in 100 μL complete medium in one black 96-well plate for glucosylceramidase (GCase) activity measurement and in one clear 96-well plate for crystal violet staining to correct for cell density. Crystal violet staining is performed to obtain quantitative information about the relative density of cells adhering to multi-wells plates.
The assay was adapted from Sawkar et al (2002) and briefly described in the following. The day after seeding of cells, the medium was replaced with fresh medium containing the compounds to be tested. Compounds were tested in duplicate and in an 8-point diluted dose range to obtain a dose response. Cells were exposed with compounds for five days. Fresh compound was added every 2-3 days. PBS was included to define the basal level of GCase activity.
Cells were washed three times with 200 μL PBS per well and 50 μL of 2.5 mM 4-MUG buffer (4-MUG dissolved in 0.2 M acetate buffer pH 4.0) was added and the cells were incubated at 37° C., 5% CO2 for 23 hours. The reaction was stopped by adding 150 μL 0.2 M glycine buffer (pH 10.8). Fluorescence was measured with a Varioskan® Flash reader (Thermo Scientific) at an excitation/emission setting of 365/445 nm.
Cells were treated with compounds in a parallel setup identical to the setup to test for GCase activity. At the end of compound treatment, cells were washed once with 200 μL PBS per well and 50 μL 0.1% w/v crystal violet (in H2O) was added. Following 10 min. of incubation, the crystal violet solution was removed, and the cells were washed three times with 200 μL PBS and 100 μL 1% SDS was added to solubilize the stain. The plate was agitated on an orbital shaker for 10-30 min. Absorbance (A) is measured at […] using a Varioskan® Flash reader (Thermo Scientific).
The fluorescence signal (F) derived from the GCase measurement is normalized to the absorbance signal (A) derived from the crystal violet staining. The percent GCase activity resulting from compound treatment is calculated relative to the basal activity obtained from untreated cells.
Maximal effect of compounds (Emax) is determined from the dose response effects as the maximum “Percent GCase activity” achieved in the dose range tested.

Compound | GBA EC1.5 | GBA Emax [%] | Emax [%] | GBA EC1.5 (listed as 419) [µM] | GBA Emax (listed as 419) [%]
4-(3-chloropyridin-4-yl)-N-(2-hydroxy-3-(piperidin-1-yl)propoxy)piperidine-4-carbimidoyl chloride tri-2,2,2-trifluoroacetate [ID 535] | 36 µM | 186 | – | – | –
CC1(C(Cl)=NOC[C@@H](O)CN2CCCCC2)CCNCC1 (single isomer, unassigned) [ID 384] | 32 µM | – | 352 | – | –
CC1(C(Cl)=NOCC(O)CN2CC3CC3C2)CCNCC1 (single isomer, unassigned) [ID 403, N-(3-(3-azabicyclo[3.1.0]hexan-3-yl)-2-hydroxypropoxy)-4-methylpiperidine-4-carbimidoyl chloride di-2,2,2-trifluoroacetate] | 48 µM | – | 264 | – | –
CC1(C(Cl)=NOCC(O)CN2CC3CCC2C3)CCNCC1 (single isomer, unassigned) [ID 410, N-(3-(2-azabicyclo[2.2.1]heptan-2-yl)-2-hydroxypropoxy)-4-methylpiperidine-4-carbimidoyl chloride di-2,2,2-trifluoroacetate] | 43 µM | – | 344 | – | –
CN1CCN(CC(O)CON=C(Cl)C2(Cc3cccnc3)CCNCC2)CC1 (single isomer, unassigned) [ID 513, N-(2-hydroxy-3-(4-methylpiperazin-1-yl)propoxy)-4-(pyridin-3-ylmethyl)piperidine-4-carbimidoyl chloride tetra-2,2,2-trifluoroacetate] | 35 µM | – | 174 | – | –
CN(C)CCC(Br)=NOCC(O)CN1CCCCC1 (single isomer, unassigned) [ID 532, 3-(dimethylamino)-N-(2-hydroxy-3-(piperidin-1-yl)propoxy)propanimidoyl bromide] | 30 µM | – | 239 | – | –
CC1(/C(Cl)=N/OC[C@H](O)CN2CCCCC2)CCNCC1 (stereo in doubt) [ID 387, (R)—N-(2-hydroxy-3-(piperidin-1-yl)propoxy)-4-methylpiperidine-4-carbimidoyl chloride di-2,2,2-trifluoroacetate] | 35 µM | – | 379 | – | –
Nc1c(Br)cc(Br)cc1CN[C@H]1CC[C@H](O)CC1 [Ambroxol, reference compound] | >20* *The 1.5-fold induction criteria was not reached within the tested concentration range μM | – | 127 | – | –
[O-][n+]1cccc(/C(Br)=N/OCC(O)CN2CCCCC2)c1 (centres unmarked) [ID 257] | 35 µM | – | 307 | – | –
CC1(/C(Cl)=N/OCC(O)CN2CCCCC2)CCNCC1 (centres unmarked) [ID 336, N-(2-hydroxy-3-(piperidin-1-yl)propoxy)-4-methylpiperidine-4-carbimidoyl chloride dihydrochloride] | 37 µM | – | 320 | – | –
[O-][n+]1ccc(/C(Br)=N/OCC(O)CN2CCCCC2)cc1 (centres unmarked) [ID 352] | 45 µM | – | 474 | – | –
CC1(/C(Cl)=N/OCC(O)CN2CCC(F)CC2)CCNCC1 (centres unmarked) [ID 399, N-(3-(4-fluoropiperidin-1-yl)-2-hydroxypropoxy)-4-methylpiperidine-4-carbimidoyl chloride di-2,2,2-trifluoroacetate] | 34 µM | – | 314 | – | –
CN1CCN(CC(O)CO/N=C(\Cl)C2(C)CCNCC2)CC1 (centres unmarked) [ID 402, N-(2-hydroxy-3-(4-methylpiperazin-1-yl)propoxy)-4-methylpiperidine-4-carbimidoyl chloride tri-2,2,2-trifluoroacetate] | 50 µM | – | 408 | – | –
CCC1(/C(Cl)=N/OCC(O)CN2CCCCC2)CCNCC1 (centres unmarked) [ID 409, 4-ethyl-N-(2-hydroxy-3-(piperidin-1-yl)propoxy)piperidine-4-carbimidoyl chloride di-2,2,2-trifluoroacetate] | 25 µM | – | 255 | – | –
OC(CO/N=C(\Cl)C1(c2ccccn2)CCNCC1)CN1CCCCC1 (centres unmarked) [ID 415, N-(2-hydroxy-3-(piperidin-1-yl)propoxy)-4-(pyridin-2-yl)piperidine-4-carbimidoyl chloride tri-2,2,2-trifluoroacetate] | 23 µM | – | 235 | – | –
OC(CO/N=C(\Cl)C1(Cc2cccnc2)CCNCC1)CN1CCCCC1 (centres unmarked) [ID 419, N-(2-hydroxy-3-(piperidin-1-yl)propoxy)-4-(pyridin-3-ylmethyl)piperidine-4-carbimidoyl chloride tri-2,2,2-trifluoroacetate] | – | – | – | 12 | 387
CN(C)CC/C(Cl)=N\OCC(O)CN1CCCCC1 (centres unmarked) [ID 446, 3-(dimethylamino)-N-(2-hydroxy-3-(piperidin-1-yl)propoxy)propanimidoyl chloride] | 6 µM | – | 176 | – | –
COCCC1(/C(Cl)=N/OCC(O)CN2CCCCC2)CCNCC1 (centres unmarked) [ID 448, N-(2-hydroxy-3-(piperidin-1-yl)propoxy)-4-(2-methoxyethyl)piperidine-4-carbimidoyl chloride di-2,2,2-trifluoroacetate] | 34 µM | – | 468 | – | –
OC(CON=C(Br)c1ccnnc1)CN1CCCCC1 (centres unmarked) [ID 452, N-(2-hydroxy-3-(piperidin-1-yl)propoxy)pyridazine-4-carbimidoyl bromide] | 18 µM | – | 572 | – | –
Cc1ncc(C(Cl)=NOCC(O)CN2CCCCC2)s1 (centres unmarked) [ID 453, N-(2-hydroxy-3-(piperidin-1-yl)propoxy)-2-methylthiazole-5-carbimidoyl chloride] | 39 µM | – | 202 | – | –
OC(CON=C(Cl)c1ccc(Cl)nc1)CN1CCCCC1 (centres unmarked) [ID 466, 6-chloro-N-(2-hydroxy-3-(piperidin-1-yl)propoxy)nicotinimidoyl chloride] | 18 µM | – | 221 | – | –
Cc1cc(C(Cl)=NOCC(O)CN2CCCCC2)on1 (centres unmarked) [ID 475, N-(2-hydroxy-3-(piperidin-1-yl)propoxy)-3-methylisoxazole-5-carbimidoyl chloride] | 24 µM | – | 354 | – | –
OC(CO/N=C(\Cl)C1(c2cccnc2)CCNCC1)CN1CCCCC1 (centres unmarked) [ID 492, N-(2-hydroxy-3-(piperidin-1-yl)propoxy)-4-(pyridin-3-yl)piperidine-4-carbimidoyl chloride tri-2,2,2-trifluoroacetate] | 42 µM | – | 383 | – | –
Cc1cc(Cl)ncc1C(Cl)=NOCC(O)CN1CCCCC1 (centres unmarked) [ID 501, 6-chloro-N-(2-hydroxy-3-(piperidin-1-yl)propoxy)-4-methylnicotinimidoyl chloride] | 19 µM | – | 128 | – | –
CC(O)(CON=C(Cl)c1ccc(Cl)nc1)CN1CCCCC1 (centres unmarked) [ID 502, 6-chloro-N-(2-hydroxy-2-methyl-3-(piperidin-1-yl)propoxy)nicotinimidoyl chloride] | 23 µM | – | 131 | – | –
COC(CO/N=C(\Cl)c1ccc(Cl)nc1)CN1CCCCC1 (centres unmarked) [ID 503] | 50 µM | – | 142 | – | –
OC(CON=C(Br)c1ccc(Cl)nc1)CN1CCCCC1 (centres unmarked) [ID 504, 6-chloro-N-(2-hydroxy-3-(piperidin-1-yl)propoxy)nicotinimidoyl bromide] | 20 µM | – | 310 | – | –
OC(CO/N=C(\Cl)C1(c2cnccn2)CCNCC1)CN1CCCCC1 (centres unmarked) [ID 512] | 50 µM | – | 147 | – | –
